Experimental data from the supplement of paper PMC10307832.

Compound: O=C(O)C(Cc1ccccc1[N+](=O)[O-])=NNc1nc(-c2ccc(Cl)c(Cl)c2)cs1 (mixture of isomers) [4EGI-1] + NC(=O)Nc1cc(-c2cccc(F)c2)sc1C(=O)N[C@H]1CCCNC1 [AZD7762] (partner 0.2 µM)
Assay: relative viability (nuclei count vs DMSO), 5 days (fraction); higher = more cells survive
Conditions: first compound 50 µM
Procedure, shortened: (§1)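 Values are medians from duplicate plates. Each reflects relative viability, defined as the nuclei count of treated wells over that of vehicle wells. Lung cancer cell lines in 1536-well plates were pin-tool dosed one day after seeding with one drug alone or with a fixed anchor-drug dose plus five library-drug doses (not always all listed) in √10 steps, then fixed, stained and imaged at 4× after 5 days.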

Row | Cell Line | relative viability
1 | NCI-H2170 | 0.244
2 | NCI-H2347 | 0.593

Compound: O=C(O)C(Cc1ccccc1[N+](=O)[O-])=NNc1nc(-c2ccc(Cl)c(Cl)c2)cs1 (mixture of isomers) [4EGI-1] + CS(=O)(=O)N1CCN(Cc2cc3nc(-c4cccc5[nH]ncc45)nc(N4CCOCC4)c3s2)CC1 [Pictilisib] (partner 1 µM)
Assay: as above
Conditions: first compound 0.5 µM
Procedure, shortened: as §1

Row | Cell Line | relative viability
3 | LCLC-97TM1 | 0.174
4 | LCLC-103H | 0.57
5 | LK-2 | 0.621
6 | LOU-NH91 | 0.532
7 | LU99A | 0.375
8 | LXF-289 | 0.846
9 | NCI-H23 | 0.481
10 | NCI-H322M | 0.56
11 | NCI-H358 | 0.333
12 | NCI-H441 | 0.517
13 | NCI-H460 | 0.381
14 | NCI-H596 | 0.439
15 | NCI-H647 | 0.437
16 | NCI-H650 | 1.13
17 | NCI-H727 | 0.382
18 | NCI-H838 | 0.527
19 | NCI-H1355 | 0.372

Row | Cell Line | relative viability
20 | NCI-H1395 | 0.638
21 | NCI-H1437 | 0.532
22 | NCI-H1651 | 0.627
23 | NCI-H1666 | 0.38
24 | NCI-H1734 | 0.52
25 | NCI-H1755 | 0.604
26 | NCI-H1793 | 0.363
27 | NCI-H1915 | 0.943
28 | NCI-H1944 | 0.357
29 | NCI-H1975 | 0.309
30 | NCI-H1993 | 0.919
31 | NCI-H2085 | 0.538
32 | NCI-H2087 | 1.02
33 | NCI-H2126 | 0.525
34 | NCI-H2170 | 0.316
35 | NCI-H2347 | 0.469

Same assay, conditions: first compound 1.581 µM

Row | Cell Line | relative viability
36 | LCLC-103H | 0.541
37 | LXF-289 | 0.731
38 | NCI-H322M | 0.467
39 | NCI-H358 | 0.368
40 | NCI-H441 | 0.414
41 | NCI-H596 | 0.394
42 | NCI-H727 | 0.451
43 | NCI-H1355 | 0.396
44 | NCI-H1437 | 0.478
45 | NCI-H1651 | 0.632
46 | NCI-H1666 | 0.343
47 | NCI-H1734 | 0.359
48 | NCI-H1755 | 0.477
49 | NCI-H1793 | 0.266
50 | NCI-H1915 | 0.558
51 | NCI-H1975 | 0.324
52 | NCI-H1993 | 0.761
53 | NCI-H2085 | 0.513
54 | NCI-H2087 | 0.813
55 | NCI-H2126 | 0.455
56 | NCI-H2170 | 0.306
57 | NCI-H2347 | 0.488

Same assay, conditions: first compound 5 µM

Row | Cell Line | relative viability
58 | LCLC-97TM1 | 0.175
59 | LCLC-103H | 0.591
60 | LK-2 | 0.696
61 | LOU-NH91 | 0.539
62 | LU99A | 0.346
63 | LXF-289 | 0.793
64 | NCI-H23 | 0.561
65 | NCI-H322M | 0.527
66 | NCI-H358 | 0.346
67 | NCI-H441 | 0.455
68 | NCI-H460 | 0.366
69 | NCI-H596 | 0.394
70 | NCI-H647 | 0.432
71 | NCI-H650 | 1.09
72 | NCI-H727 | 0.26
73 | NCI-H838 | 0.435
74 | NCI-H1355 | 0.493

Row | Cell Line | relative viability
75 | NCI-H1395 | 0.735
76 | NCI-H1437 | 0.533
77 | NCI-H1651 | 0.576
78 | NCI-H1666 | 0.524
79 | NCI-H1734 | 0.463
80 | NCI-H1755 | 0.459
81 | NCI-H1793 | 0.377
82 | NCI-H1915 | 1.03
83 | NCI-H1944 | 0.331
84 | NCI-H1975 | 0.316
85 | NCI-H1993 | 0.781
86 | NCI-H2085 | 0.52
87 | NCI-H2087 | 0.888
88 | NCI-H2126 | 0.581
89 | NCI-H2170 | 0.319
90 | NCI-H2347 | 0.579

Same assay, conditions: first compound 15.81 µM

Row | Cell Line | relative viability
91 | LCLC-97TM1 | 0.199
92 | LCLC-103H | 0.574
93 | LK-2 | 0.64
94 | LOU-NH91 | 0.478
95 | LU99A | 0.326
96 | LXF-289 | 0.745
97 | NCI-H23 | 0.579
98 | NCI-H322M | 0.443
99 | NCI-H358 | 0.259
100 | NCI-H441 | 0.447
101 | NCI-H460 | 0.331
102 | NCI-H596 | 0.4
103 | NCI-H647 | 0.401
104 | NCI-H650 | 0.969
105 | NCI-H727 | 0.344
106 | NCI-H838 | 0.362
107 | NCI-H1355 | 0.362

Row | Cell Line | relative viability
108 | NCI-H1395 | 0.567
109 | NCI-H1437 | 0.256
110 | NCI-H1651 | 0.508
111 | NCI-H1666 | 0.376
112 | NCI-H1734 | 0.397
113 | NCI-H1755 | 0.398
114 | NCI-H1793 | 0.241
115 | NCI-H1915 | 0.933
116 | NCI-H1944 | 0.33
117 | NCI-H1975 | 0.322
118 | NCI-H1993 | 0.736
119 | NCI-H2085 | 0.507
120 | NCI-H2087 | 0.626
121 | NCI-H2126 | 0.445
122 | NCI-H2170 | 0.253
123 | NCI-H2347 | 0.738

Same assay, conditions: first compound 50 µM

Row | Cell Line | relative viability
124 | LCLC-97TM1 | 0.105
125 | LCLC-103H | 0.451
126 | LK-2 | 0.541
127 | LOU-NH91 | 0.484
128 | LU99A | 0.247
129 | LXF-289 | 0.516
130 | NCI-H23 | 0.343
131 | NCI-H322M | 0.5
132 | NCI-H358 | 0.223
133 | NCI-H441 | 0.19
134 | NCI-H460 | 0.261
135 | NCI-H596 | 0.352
136 | NCI-H647 | 0.27
137 | NCI-H650 | 0.723
138 | NCI-H727 | 0.328
139 | NCI-H838 | 0.173
140 | NCI-H1355 | 0.277

Row | Cell Line | relative viability
141 | NCI-H1395 | 0.346
142 | NCI-H1437 | 0.126
143 | NCI-H1651 | 0.21
144 | NCI-H1666 | 0.266
145 | NCI-H1734 | 0.316
146 | NCI-H1755 | 0.235
147 | NCI-H1793 | 0.235
148 | NCI-H1915 | 0.66
149 | NCI-H1944 | 0.285
150 | NCI-H1975 | 0.294
151 | NCI-H1993 | 0.862
152 | NCI-H2085 | 0.439
153 | NCI-H2087 | 0.386
154 | NCI-H2126 | 0.42
155 | NCI-H2170 | 0.22
156 | NCI-H2347 | 0.361
